This note sets out measurements from patent publication US9315498B2, “Arlethynyl derivatives” (Hoffmann-La Roche Inc., priority 2010, dated 2016).

SMILES strings stand for the structures.

The assay addresses human mGlu5a receptor (Homo sapiens (Human), UniProt P41594). As to the kind of experiment: Intracellular Ca2+ mobilization assay (mGlu5 PAM). Format: cell-based. The settings on record: for EC50: HEK-293 cells stably transfected with human mGlu5a, L-glutamate added at EC20 after pre-incubation with test compound, read-out: EC50 (nM) mGlu5PAM; for Emax: maximal response in % of the maximal stimulatory effect obtained with saturating concentrations of L-glutamate, read-out: Eff. (%). Put shortly: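 HEK-293 cells stably expressing human mGlu5a at low level were loaded with Fluo-4AM and preincubated 10–30 min at 37 °C with 11-point half-log compound dilutions. L-glutamate was then added at its daily-determined EC20 (typically around 80 μM). Peak fluorescence minus basal, normalized to maximal glutamate effect, was fitted to give EC50, Hill slope and maximal response.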
A general note: Calcium assays in cells follow changes in intracellular calcium, usually with a dye or a luminescent sensor.

For orientation: EC50 means the concentration needed to bring the measured effect to its halfway point.

Chain of human mGlu5a receptor (P41594 other isoform, or with tags, fused parts or gaps): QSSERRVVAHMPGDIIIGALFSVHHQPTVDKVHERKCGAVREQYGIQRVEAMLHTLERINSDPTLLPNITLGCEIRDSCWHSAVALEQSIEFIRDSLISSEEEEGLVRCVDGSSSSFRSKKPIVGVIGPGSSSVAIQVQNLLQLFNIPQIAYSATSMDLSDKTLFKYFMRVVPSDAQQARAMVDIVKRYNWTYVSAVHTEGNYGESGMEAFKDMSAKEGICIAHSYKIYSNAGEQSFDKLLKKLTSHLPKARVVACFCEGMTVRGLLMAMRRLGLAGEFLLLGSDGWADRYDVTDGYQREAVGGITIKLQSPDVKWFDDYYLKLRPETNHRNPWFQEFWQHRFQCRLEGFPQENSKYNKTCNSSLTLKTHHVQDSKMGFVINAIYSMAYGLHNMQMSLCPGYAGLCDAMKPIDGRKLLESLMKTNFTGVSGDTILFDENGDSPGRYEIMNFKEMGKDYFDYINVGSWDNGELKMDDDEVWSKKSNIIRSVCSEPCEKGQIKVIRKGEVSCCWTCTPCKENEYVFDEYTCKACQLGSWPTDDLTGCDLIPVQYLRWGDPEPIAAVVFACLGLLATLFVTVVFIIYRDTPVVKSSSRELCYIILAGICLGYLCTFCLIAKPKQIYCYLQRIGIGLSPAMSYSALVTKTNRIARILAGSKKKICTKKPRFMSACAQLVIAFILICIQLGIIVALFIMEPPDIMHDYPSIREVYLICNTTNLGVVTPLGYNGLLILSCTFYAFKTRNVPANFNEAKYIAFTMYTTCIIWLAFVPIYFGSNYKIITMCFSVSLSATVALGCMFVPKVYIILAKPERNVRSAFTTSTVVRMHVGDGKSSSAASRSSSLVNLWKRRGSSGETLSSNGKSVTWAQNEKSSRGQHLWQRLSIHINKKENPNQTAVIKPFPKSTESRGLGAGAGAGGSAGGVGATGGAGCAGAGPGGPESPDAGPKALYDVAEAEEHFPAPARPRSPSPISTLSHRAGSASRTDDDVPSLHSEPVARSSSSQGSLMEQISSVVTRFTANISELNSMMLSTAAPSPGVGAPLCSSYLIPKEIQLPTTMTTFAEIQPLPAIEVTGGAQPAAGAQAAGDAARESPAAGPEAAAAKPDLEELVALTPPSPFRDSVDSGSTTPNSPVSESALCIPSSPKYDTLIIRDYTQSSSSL

Consider `Cc1cccc(C#Cc2ccc(N3CC(C)(C)N(C)C3=O)nc2)c1` [Example 56, 3,4,4-Trimethyl-1-(5-m-tolylethynyl-pyridin-2-yl)-imidazolidin-2-one], for which the EC50 worked out at 87 nM and the Emax was found to be 56%.
On to `CN1C(=O)N(c2ccc(C#Cc3ccc(F)cc3)cn2)CC1(C)C` [Example 57, 1-[5-(4-Fluoro-phenylethynyl)-pyridin-2-yl]-3,4,4-trimethyl-imidazolidin-2-one], for which the EC50 was determined as 35 nM and the Emax turned out to be 78%.
With `O=C1CC2(CCCC2)CN1c1ccc(C#Cc2ccccc2)cn1` [Example 59, 2-(5-Phenylethynyl-pyridin-2-yl)-2-aza-spiro[4.4]nonan-3-one], the 50% effective concentration (EC50) was found to be 16 nM and the Emax is 81%.
With `CN1C(=O)N(c2ccc(C#Cc3ccccc3)cn2)CCC1(C)C` [Example 67, 3,4,4-Trimethyl-1-(5-phenylethynyl-pyridin-2-yl)-tetrahydro-pyrimidin-2-one], the EC50 is 15 nM and the Emax was 81%.
With `CN1C(=O)N(c2ccc(C#Cc3cc(F)ccc3F)cn2)CCC1(C)C` [Example 68, 1-[5-(2,5-Difluoro-phenylethynyl)-pyridin-2-yl]-3,4,4-trimethyl-tetrahydro-pyrimidin-2-one], the EC50 stood at 41 nM and the Emax was 79%.
As to `CN1C(=O)N(c2ccc(C#Cc3ccc(F)cc3)cn2)CCC1(C)C` [Example 69, 1-[5-(4-Fluoro-phenylethynyl)-pyridin-2-yl]-3,4,4-trimethyl-tetrahydro-pyrimidin-2-one], the EC50 was 49 nM and the Emax is 107%.
As for `CC1(C)CCN(c2ccc(C#Cc3cccnc3)cn2)C(=O)O1` [Example 73, 6,6-Dimethyl-3-(5-pyridin-3-ylethynyl-pyridin-2-yl)-[1,3]oxazinan-2-one], the EC50 came to 59 nM and the Emax came to 98%.
`CC1(C)CCN(c2ccc(C#Cc3cncc(F)c3)cn2)C(=O)O1` [Example 74, 3-[5-(5-Fluoro-pyridin-3-ylethynyl)-pyridin-2-yl]-6,6-dimethyl-[1,3]oxazinan-2-one]: the EC50 was 59 nM and the Emax was 108%.
On to `CC1(C)CCN(c2ccc(C#Cc3cncc(Cl)c3)cn2)C(=O)O1` [Example 75, 3-[5-(5-Chloro-pyridin-3-ylethynyl)-pyridin-2-yl]-6,6-dimethyl-[1,3]oxazinan-2-one], for which the concentration giving a half-maximal response (EC50) amounted to 27 nM and the Emax came out at 87%.
For `CC1(C)CCN(c2ccc(C#Cc3cccc(Cl)c3)cn2)C(=O)O1` [Example 77, 3-[5-(3-Chloro-phenylethynyl)-pyridin-2-yl]-6,6-dimethyl-[1,3]oxazinan-2-one], the EC50 was found to be 12 nM and the Emax came out at 72%.
Consider `Cc1cccc(C#Cc2ccc(N3CCC(C)(C)OC3=O)nc2)c1` [Example 78, 6,6-Dimethyl-3-(5-m-tolylethynyl-pyridin-2-yl)-[1,3]oxazinan-2-one], for which the EC50 stood at 24 nM and the Emax came to 72%.
For the molecule `CC1(C)CCN(c2ccc(C#Cc3ccc(F)c(F)c3)cn2)C(=O)O1` [Example 80, 3-[5-(3,4-Difluoro-phenylethynyl)-pyridin-2-yl]-6,6-dimethyl-[1,3]oxazinan-2-one], the concentration giving a half-maximal response (EC50) was found to be 37 nM and the Emax was determined as 69%.
Regarding `O=C1CC2(COC2)CN1c1ccc(C#Cc2ccccc2)cn1` [Example 82, 6-(5-Phenylethynyl-pyridin-2-yl)-2-oxa-6-aza-spiro[3.4]octan-7-one], the EC50 turned out to be 57 nM and the Emax worked out at 72%.
As for `CN1C(=O)N(c2ccc(C#Cc3ccccc3)cn2)C2CCCCC21` (stereo not drawn) [Example 84, (3 aSR,7aRS)-(3aRS,7RS)-1-Methyl-3-(5-phenylethynyl-pyridin-2-yl)-octahydro-benzoimidazol-2-one], the EC50 was 11 nM and the Emax came to 64%.
With `CN1C(=O)N(c2ccc(C#Cc3cccnc3)cn2)C2CCCCC21` (stereo not drawn) [Example 85, (3aSR,7aRS)-(3aRS,7RS)-1-Methyl-3-(5-pyridin-3-ylethynyl-pyridin-2-yl)-octahydro-benzoimidazol-2-one], the EC50 is 27 nM and the Emax is 49%.
Taken in the same sequence, the figures for `CN1C(=O)N(c2ccc(C#Cc3cncc(F)c3)cn2)C2CCCCC21` (stereo not drawn) [Example 86, (3aSR,7aRS)-(3aRS,7RS)-1-[5-(5-Fluoro-pyridin-3-ylethynyl)-pyridin-2-yl]-3-methyl-octahydro-benzoimidazol-2-one] were 32 nM and 52%.
As to `CC1(C)CCN(c2ccc(C#Cc3ccccc3)cn2)C(=O)C1` [Example 87, 4,4-Dimethyl-5′-phenylethynyl-3,4,5,6-tetrahydro-[1,2′]bipyridinyl-2-one], the EC50 came to 12 nM and the Emax was found to be 89%.
As for `CC1(C)CCN(c2ccc(C#Cc3cccc(F)c3)cn2)C(=O)C1` [Example 88, 5′-(3-Fluoro-phenylethynyl)-4,4-dimethyl-3,4,5,6-tetrahydro-[1,2′]bipyridinyl-2-one], the EC50 came out at 19 nM and the Emax is 110%.
In the same order, the values of `CC1(C)CCN(c2ccc(C#Cc3cccc(Cl)c3)cn2)C(=O)C1` [Example 89, 5′-(3-Chloro-phenylethynyl)-4,4-dimethyl-3,4,5,6-tetrahydro-[1,2′]bipyridinyl-2-one] are 25 nM and 78%.
Taken in the same sequence, the figures for `CC1(C)CCN(c2ccc(C#Cc3cncc(Cl)c3)cn2)C(=O)C1` [Example 90, 5′-(5-Chloro-pyridin-3-ylethynyl)-4,4-dimethyl-3,4,5,6-tetrahydro-[1,2′]bipyridinyl-2-one] were 66 nM and 90%.
With `CC1(C)CCN(c2ccc(C#Cc3ccc(F)cc3)cn2)C(=O)C1` [Example 91, 5′-(4-Fluoro-phenylethynyl)-4,4-dimethyl-3,4,5,6-tetrahydro-[1,2′]bipyridinyl-2-one], the EC50 was found to be 67 nM and the Emax was 89%.
On to `CC1(C)CCN(c2ccc(C#Cc3cc(F)ccc3F)cn2)C(=O)C1` [Example 92, 5′-(2,5-Difluoro-phenylethynyl)-4,4-dimethyl-3,4,5,6-tetrahydro-[1,2′]bipyridinyl-2-one], for which the EC50 was 32 nM and the Emax came to 84%.
With `CC1(C)CCCN(c2ccc(C#Cc3ccccc3)cn2)C(=O)O1` [Example 93, 7,7-Dimethyl-3-(5-phenylethynyl-pyridin-2-yl)-[1,3]oxazepan-2-one], the EC50 came to 36 nM and the Emax was determined as 104%.
Regarding `O=C1OC2COCCC2N1c1ccc(C#Cc2ccccc2)cn1` (stereo not drawn) [Example 94, (3aSR,7aRS)-(3aRS,7RS)-1-(5-Phenylethynyl-pyridin-2-yl)-hexahydro-pyrano[4,3-d]oxazol-2-one], the EC50 turned out to be 60 nM and the Emax is 84%.
`CN1C(=O)N(c2ccc(C#Cc3ccccc3)cn2)CC12CC2` [Example 96, 4-Methyl-6-(5-phenylethynyl-pyridin-2-yl)-4,6-diaza-spiro[2.4]heptan-5-one]: the EC50 came out at 35 nM and the Emax is 98%.
On to `CC1(C)CN(c2ccc(C#Cc3ccccc3)cn2)C1=O` [Example 97, 3,3-Dimethyl-1-(5-phenylethynyl-pyridin-2-yl)-azetidin-2-one], for which the EC50 was 36 nM and the Emax is 71%.
As for `CCN1C(=O)N(c2ccc(C#Cc3ccccc3)cn2)C2CCCCC21` (stereo not drawn) [Example 99, (3aSR,7aRS)-(3aRS,7RS)-1-Ethyl-3-(5-phenylethynyl-pyridin-2-yl)-octahydro-benzoimidazol-2-one], the EC50 came out at 18 nM and the Emax turned out to be 90%.
Regarding `CCN1C(=O)N(c2ccc(C#Cc3cccnc3)cn2)C2CCCCC21` (stereo not drawn) [Example 100, (3aSR,7aRS)-(3aRS,7RS)-1-Ethyl-3-(5-pyridin-3-ylethynyl-pyridin-2-yl)-octahydro-benzoimidazol-2-one], the Emax was 64%.
`CC(C)N1C(=O)N(c2ccc(C#Cc3ccccc3)cn2)C2CCCCC21` (stereo not drawn) [Example 101, (3aSR,7aRS)-(3aRS,7RS)-1-Isopropyl-3-(5-phenylethynyl-pyridin-2-yl)-octahydro-benzoimidazol-2-one]: the EC50 is 39 nM and the Emax is 77%.
In the same order, the values of `Cc1cc(C#Cc2cccc(F)c2)cnc1N1CC(C)(C)N(C)C1=O` [Example 108, 1-[5-(3-Fluoro-phenylethynyl)-3-methyl-pyridin-2-yl]-3,4,4-trimethyl-imidazolidin-2-one] are 102 nM and 115%.
In the case of `CN1C(=O)N(c2ncc(C#Cc3ccc(F)cc3)cc2F)CC1(C)C` [Example 110], the EC50 worked out at 96 nM and the Emax was found to be 117%.
Taken in the same sequence, the figures for `CN1C(=O)N(c2ncc(C#Cc3cccc(F)c3)cc2F)CC1(C)C` [Example 111] were 32 nM and 107%.
As for `CN1C(=O)N(c2ccc(C#Cc3ccc(F)cc3)cn2)CC12CC2` [Example 112, 6-[5-(4-Fluoro-phenylethynyl)-pyridin-2-yl]-4-methyl-4,6-diaza-spiro[2.4]heptan-5-one], the EC50 stood at 80 nM and the Emax is 89%.
Take `CN1C(=O)N(c2ccc(C#Cc3cccc(F)c3)cn2)CC12CC2` [Example 113, 6-[5-(3-Fluoro-phenylethynyl)-pyridin-2-yl]-4-methyl-4,6-diaza-spiro[2.4]heptan-5-one]: the EC50 came out at 51 nM and the Emax was found to be 75%.
As for `CC1(C)CC(=O)N(c2ncc(C#Cc3ccccc3)cn2)C1` [Example 115, 4,4-Dimethyl-1-(5-phenylethynyl-pyrimidin-2-yl)-pyrrolidin-2-one], the EC50 stood at 13 nM and the Emax was 109%.
`CC1(C)CCC(=O)N(c2ncc(C#Cc3ccccc3)cn2)C1` [Example 116, 5,5-Dimethyl-1-(5-phenylethynyl-pyrimidin-2-yl)-piperidin-2-one]: the EC50 was 41 nM and the Emax worked out at 101%.
